In patent publication US20140275090A1, “BILE ACID RECYCLING INHIBITORS FOR TREATMENT OF PRIMARY SCLEROSING CHOLANGITIS AND INFLAMMATORY BOWEL DISEASE” (Lumena Pharmaceuticals, Inc., priority 2013, published 2014):

System: Hepatic HMG-CoA Reductase
Test: Hepatic HMG-CoA reductase activity assay, hamster liver microsomes
Format: in vivo, golden Syrian hamster
Settings: 28 days
Text: Male golden Syrian hamsters (126-147 gm) were obtained from Charles Rivers Laboratories and were single housed in a constant temperature environment with alternating 12-hour light and dark cycles. Hamsters were fed Teklad 7001 rodent meal chow at libitum for two weeks before the experimental studies began and switched to Teklad 7001 rodent meal chow supplemented with 0.24% cholesterol on day one of the 28-day experiment. Water was continuously available to the animals. Hamsters were assigned to groups in a manner that normalized each group by pretreatment body weights. SD-5613 was dissolved in an aqueous solution of 0.2% (w/v) Tween 80 and administered Q.D. by intragastric gavage between 9 a.m. and 10 a.m. each morning using a syringe fitted with a flexible feeding tube. Blood samples were collected after 14- and 28-day treatment periods by orbital sinus and cardiac puncture, respectively. Hamsters were anesthetized but not fasted prior to blood collections. Fecal samples were collected during a 48-hour period at the end of days 14 and 28 (i.e. days 13-14 and 27-28). Hamsters were sacrificed using carbon dioxide asphyxiation to obtain the following tissue samples: liver, kidneys, colon and cecum.
Homogenates of three gram liver tissue samples were prepared in 25 ml homogenization buffer [0.1 M potassium phosphate buffer, pH 7.2, containing 0.1 M sucrose, 50 mM KCl, 50 mM NaF, 5 mM ethylene glycol-bis(β-aminoethyl ether)-N,N,N′,N′-tetraacetic acid (EGTA), 1 mM EDTA, 3 mM dithiothreitol (DTIT), and 1 mM phenylmethylsulfonyl fluoride (PMSF)]. A microsomal fraction was prepared by centrifugation at 10,000×g for ten minutes. The supernatant was subjected to centrifugation at 105,000×g for two hours. The microsomal fraction was resuspended in a 0.1 M Na tetrapyrophosphate buffer (pH 10), with 50 mM NaF, and 1 mM EDTA, and subjected to centrifugation for one hour at 105,000×g. The microsomal fraction was resuspended in the homogenization buffer, and assayed for protein content by Coomassie Protein Plus Assay reagent.
Microsomes (200 μg) were preincubated for 15 minutes at 37° C. in a total volume of 225 μl buffer containing 0.1 M potassium phosphate (pH 7.4), 10 mM imidazole, 5 mM DTT, 10 mM EDTA, 3 mM NADP, 12 mM glucose-6-phosphate and 1 unit glucose-6-phosphate dehydrogenase (catalog number G4134, Sigma, St. Louis). The HMG-CoA reductase assay was initiated by the addition of 9 nmoles (0.5 μCi). DL-[-3^14C]-HMG-CoA (final assay volume was DL-3-[^14C]-250 μl). The mixture was incubated for 60 minutes at 37° C. after which the assay was stopped with 25 μl of 6 N HCl. [^3H]Mevalonic acid (0.1 μCi), used as an internal standard to correct for incomplete recovery, was added to the reaction mixture along with 3 mg of unlabeled mevalonic acid lactone. The mixture was then incubated for an additional 30 minutes at 37° C. The [^14C]mevalonate that was formed and converted into mevalonic acid lactone during both incubations was isolated by thin layer chromatography. Each lane was scraped into 3 ml of InstaGel XF (Packard, Meriden, Conn.) and read on a Beckman Scintillator Counter. Reagents unless noted otherwise were obtained from Sigma, St. Louis, Mo. Isotopes were obtained from NEN Life Science Products, Boston, Mass.

## CCCCC1(CCCC)CS(=O)(=O)c2ccc(N(C)C)cc2[C@@H](c2ccc(OCc3ccc(C[N+]45CCN(CC4)CC5)cc3)cc2)[C@H]1O [LUM001]
5 mg/kg/day
  Hepatic HMG-CoA Reductase: 4.6 ± 0.4 pmol/mg-protein/min
  Hepatic HMG-CoA Reductase, % change from vehicle group: (+31) %
15 mg/kg/day
  Hepatic HMG-CoA Reductase: 16 ± 4 pmol/mg-protein/min
  Hepatic HMG-CoA Reductase, % change from vehicle group: (+346) %
50 mg/kg/day
  Hepatic HMG-CoA Reductase: 17 ± 4 pmol/mg-protein/min
  Hepatic HMG-CoA Reductase, % change from vehicle group: (+389) %
